The results in this text go back to PMC5750657, “In Vitro Phase I Metabolism of CRV431, a Novel Oral Drug Candidate for Chronic Hepatitis B” (Pharmaceutics, 2017).

Holding throughout (assay type): in vitro ADME
For one series, the system named is CYP2C19. Briefly: Chemical inhibition of CRV431 loss in human liver microsomes: CYP2C19. Particulars: pH 7.4, probe CRV431 (1 μM; loss of parent), metabolism-dependent inhibitor (also inhibits CYP3A4/5), 30 min pre-incubation. The protocol: (§1) This experiment was carried out manually to verify the role of individual CYP enzymes in the metabolism of CRV431. […] Incubations were conducted at 37 ± 1 °C in 0.2 mL incubation mixtures (final volume) containing potassium phosphate buffer (50 mM, pH 7.4), MgCl2 (3 mM) and EDTA (1 mM, pH 7.4), with an NADPH-generating system as cofactor. The NADPH-generating system consisted of NADP (1 mM, pH 7.4), glucose-6-phosphate (5 mM, pH 7.4), and glucose-6-phosphate dehydrogenase (1 Unit/mL). CRV431 was added to the incubation mixtures in DMSO (0.1% v/v). For incubations with direct-acting chemical inhibitors, reactions were initiated by the addition of cofactor, and stopped by the addition of an equal volume of acetonitrile stop reagent. For incubations with metabolism-dependent chemical inhibitors, 30 min pre-incubations of human liver microsomes and the inhibitor were initiated by the addition of the cofactor. CRV431 was then added to the mixture to be incubated for 15 min. Reactions were stopped by the addition of an equal volume of acetonitrile stop reagent. Samples were analyzed by LC-MS/MS to quantify the amount of unchanged CRV431. Control samples with no CYP inhibitor present were conducted in the presence of the solvent used to dissolve the CYP inhibitor (“solvent control”).
(§2) Samples were analyzed by LC-MS/MS on a SCIEX 4000 QTrap mass spectrometer (Sciex, Rewood City, CA, USA). […]

Series [1] has as its target T1, CYP2C9 (Homo sapiens, UniProt P11712). Put plainly: Chemical inhibition of CRV431 loss in human liver microsomes: CYP2C9. The arrangement: tissue Sekisui Xenotech, Kansas City, MO, USA; host or cells: human liver microsomes. Particulars: pH 7.4, probe CRV431 (1 μM; loss of parent), metabolism-dependent inhibitor, 30 min pre-incubation. The protocol: as §1, §2
A short description of series [2]: CRV431 metabolite profile in human liver microsomes (ESI-LCMS). The following applies: pH 7.4; for Amount of CRV431 remaining: microsomes, 1 μg/mL. The protocol:
(§3) Human and rat liver microsomes were obtained from Xenotech (Kansas City, MO, USA) and stored at −80 °C. Monkey liver microsomes were obtained from Thermo Fisher Scientific (Waltham, MA, USA) and stored at −80 °C. Preliminary microsomal biotransformation experiments were run with 0.1, 1, and 10 μg/mL CRV431. CRV431 biotransformation was minimal at 0.1 μg/mL, while both 1 and 10 μg/mL CRV431 gave sufficient metabolite quantity and identical metabolite profiles. Additionally, preliminary experiments were conducted with human liver microsome (HLM) levels ranging for 0.125 to 1 mg. Subsequent microsomal biotransformation experiments were conducted using 0.5 mg of microsome per assay.
(§4) Thawed microsome 20 mg/mL stocks were diluted 32× into cold buffer (Phosphate pH 7.4 + MgCl2 3 mM + EDTA 1 mM) to 0.625 mg/mL, and stored on ice. For experiments with CRV431, 2 μL of […] stocks were added to cold 1-mL microsomes (500× dilution) to generate the 1 μg/mL samples. […]. Samples were mixed by vortexing, and 160 μL was transferred into tubes containing 40 μL buffer on ice. Metabolic activity was stopped by the addition of ice-cold methanol (200 μL), followed by vortexing for an additional 10 s; these were zero-time samples. The extraction was completed by waiting 5 min, vortexing samples again for 5 s, then spinning the samples for 10 min at 3300 rpm at 4 °C in a pre-cooled microcentrifuge. The supernatant (325 μL) was transferred to new tubes and stored at −80 °C.
(§5) For time course experiments, metabolism was initiated by adding 40 μL of NADPH Regenerating System (5 mg/mL NADP, 6.5 mg/mL G6P and 5 units/mL of G6P dehydrogenase). The sample was vortexed for 2 s and placed in a 37 °C bath. For CRV431 experiments at time points 10 min, 20 min, 40 min, and 80 min, 200 μL of ice-cold methanol was added to the 200 μL microsome reactions, and extracted as described above. Samples were stored at −80 °C. For verapamil experiments at 15 min, 200 μL of ice-cold methanol was added to the 200 μL microsome reactions and extracted as described above. Samples were stored at −80 °C.
(§6) Microsome extracts were removed from the freezer (−80 °C) and left to thaw at room temperature. Aliquots (50 μL) were removed and placed in 2 mL plastic Eppendorf microcentrifuge tubes, to which 200 μL of a 0.2 M ZnSO4 solution (0.2 M ZnSO4 in water, plus HPLC grade methanol, 1:4, v/v) was added as protein precipitating reagent. The tubes were capped and vortexed for 10 s, and then left on the benchtop for 10 min. Samples were then centrifuged at 3300 rpm for 10 min. The clear supernatant (≈150 μL) was transferred to an appropriately labeled LC-MS autosampler vial and capped.
(§7) Samples were analyzed by electrospray ionization liquid chromatography mass spectrometry (ESI-LCMS) on an Agilent HP 1100 LC-MS. Samples were placed in an autosampler maintained at 5 °C. CRV431 microsomal extracts (20 μL) were injected onto a Zorbax SB-C18 reverse phase HPLC column (1.8 μm Rapid Resolution HT Cartridge, 4.6 × 30 mm (Agilent, Santa Clara, CA, USA) maintained at 75 °C, and the components were separated using an acetonitrile–water gradient system (Table 2). The sodium adducts of CRV431 (1326 m/z) and metabolites were analyzed by mass spectrometry (MS) using electrospray ionization (ESI) in positive ion mode. The ESI–MS was optimized with N2 gas temperature set at 350 °C and drying gas at […]. The fragmentor and capillary voltages were set at 260 and 4000 volts, respectively. The nebulizer pressure was set at 40 psig. For the initial analysis of the microsomal extracts, the ESI–MS was run in scan mode (1260–1460 m/z) to capture all ion signals present. Subsequently, the microsomal extracts were run in selected ion mode (SIM), with the ions identified in the scans.

A further series deals with T2, recombinant human CYP2D6 (Homo sapiens, UniProt P10635).
T2 construct: purchased Sekisui Xenotech, Kansas City, MO, USA
Put plainly: Metabolism by recombinant human CYP enzymes: CYP2D6. The following applies: CRV431 1 μM; 50 pmol CYP/mL; 15 min. The method, then:
(§8) This experiment was carried out to determine the cytochrome P450 (CYP) enzymes capable of metabolizing CRV431. […] Reactions were initiated by the addition of cofactor, and were terminated at zero and 15 min by the addition of 175 μL ice-cold methanol.
(§9) The electrospray voltage was set at 4500 volts.

Series [3] is described as follows: Recombinant CYP panel: incubation with control bactosomes. The following applies: CRV431 1 μM, 15 min. The protocol: as §8, §9
In the next series the target is T3, recombinant human CYP1A2 (Homo sapiens, UniProt P05177).
T3 construct: purchased Sekisui Xenotech, Kansas City, MO, USA
T3 sequence (P05177 1-516): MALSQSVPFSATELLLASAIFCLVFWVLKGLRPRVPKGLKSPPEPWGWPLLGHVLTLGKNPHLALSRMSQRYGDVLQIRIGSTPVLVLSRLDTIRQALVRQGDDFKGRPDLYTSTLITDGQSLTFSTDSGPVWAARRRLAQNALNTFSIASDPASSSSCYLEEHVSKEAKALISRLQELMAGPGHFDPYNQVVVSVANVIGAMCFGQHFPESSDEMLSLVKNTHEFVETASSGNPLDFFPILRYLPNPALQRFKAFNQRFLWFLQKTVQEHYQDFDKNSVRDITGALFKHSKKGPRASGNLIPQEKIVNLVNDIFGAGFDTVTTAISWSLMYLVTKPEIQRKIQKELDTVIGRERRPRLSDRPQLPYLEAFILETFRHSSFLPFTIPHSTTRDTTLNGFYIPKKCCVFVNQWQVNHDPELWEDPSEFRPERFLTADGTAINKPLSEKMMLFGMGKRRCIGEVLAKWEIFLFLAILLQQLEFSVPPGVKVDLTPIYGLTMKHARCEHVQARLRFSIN
Put plainly: Metabolism by recombinant human CYP enzymes: CYP1A2. Particulars: CRV431 1 μM; 50 pmol CYP/mL; 15 min. The protocol:
as §8, §9

Series [4] can be described thus: Metabolic stability of CRV431 in human liver microsomes. The protocol:
Incubations of CRV431 (1 and 10 μM) with pooled human liver microsomes (1 mg protein/mL) were conducted for 30 min. […] CRV431 was added to incubations in DMSO (0.1% v/v). Additional incubations of CRV431 (1 and 10 μM) with human liver microsomes (1 mg protein/mL) were carried out at 0, 15, 30, 60, and 120 min. Reactions were initiated by the addition of the NADPH-generating system, and were stopped by the addition of 175 μL of acetonitrile. The samples were centrifuged (920× g for 10 min at 10 °C), and the supernatant fractions were analyzed by LC-MS/MS (Sciex, Redwood City, CA, USA) to quantify the amount of unchanged CRV431 based on a calibration curve (ranging from 0.01 to 15 μM). Zero-time, zero-cofactor (no NADPH), zero-substrate, and zero-protein served as blanks.
as §9

The subject of series [5] is other recombinant human CYP enzymes. Briefly: Metabolism by the other recombinant human CYP enzymes evaluated. Particulars: CRV431 1 and 10 μM; the CYP enzymes of the panel not given; 15 min. The method, then:
as §8, §9

Series [6] concerns the target T4, recombinant human CYP2C19 (Homo sapiens, UniProt P33261).
T4 construct: purchased Sekisui Xenotech, Kansas City, MO, USA
Briefly: Metabolism by recombinant human CYP enzymes: CYP2C19. The following applies: CRV431 1 μM; 50 pmol CYP/mL; 15 min. The protocol: as §8, §9

Series [7] can be described thus: CRV431 metabolite profile in monkey liver microsomes (ESI-LCMS). The method, then:
as §3, §4, §5, §6, §7

The nature of series [8]: CRV431 metabolite profile in rat liver microsomes (ESI-LCMS). The following applies: Sprague-Dawley, pH 7.4. The protocol: as §3, §4, §5, §6, §7
The next series has as its target T5, recombinant human CYP3A4 (Homo sapiens, UniProt P08684).
T5 construct: purchased Sekisui Xenotech, Kansas City, MO, USA
Put plainly: Metabolism by recombinant human CYP enzymes: CYP3A4. Particulars: 50 pmol CYP/mL, 15 min. The method, then: as §8, §9

Series [9] addresses T1, CYP2C9. Briefly: Metabolism by recombinant human CYP enzymes: CYP2C9. Particulars: 50 pmol CYP/mL, 15 min. Further details: purchased Sekisui Xenotech, Kansas City, MO, USA. The method, then: as §8, §9

T1 sequence (P11712 whole entry): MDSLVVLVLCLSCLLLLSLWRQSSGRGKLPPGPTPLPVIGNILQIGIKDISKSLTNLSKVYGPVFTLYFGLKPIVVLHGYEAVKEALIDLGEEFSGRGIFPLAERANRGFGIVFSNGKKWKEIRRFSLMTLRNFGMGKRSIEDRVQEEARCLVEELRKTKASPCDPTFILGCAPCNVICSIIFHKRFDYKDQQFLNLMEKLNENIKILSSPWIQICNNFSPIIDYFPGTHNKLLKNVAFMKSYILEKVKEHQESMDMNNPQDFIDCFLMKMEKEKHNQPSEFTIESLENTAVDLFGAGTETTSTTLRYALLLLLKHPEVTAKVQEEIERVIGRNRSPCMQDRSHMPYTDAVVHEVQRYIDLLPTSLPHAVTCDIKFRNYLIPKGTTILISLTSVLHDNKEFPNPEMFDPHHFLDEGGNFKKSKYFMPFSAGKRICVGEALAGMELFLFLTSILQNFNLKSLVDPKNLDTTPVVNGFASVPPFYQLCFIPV
T5 sequence (P08684 whole entry): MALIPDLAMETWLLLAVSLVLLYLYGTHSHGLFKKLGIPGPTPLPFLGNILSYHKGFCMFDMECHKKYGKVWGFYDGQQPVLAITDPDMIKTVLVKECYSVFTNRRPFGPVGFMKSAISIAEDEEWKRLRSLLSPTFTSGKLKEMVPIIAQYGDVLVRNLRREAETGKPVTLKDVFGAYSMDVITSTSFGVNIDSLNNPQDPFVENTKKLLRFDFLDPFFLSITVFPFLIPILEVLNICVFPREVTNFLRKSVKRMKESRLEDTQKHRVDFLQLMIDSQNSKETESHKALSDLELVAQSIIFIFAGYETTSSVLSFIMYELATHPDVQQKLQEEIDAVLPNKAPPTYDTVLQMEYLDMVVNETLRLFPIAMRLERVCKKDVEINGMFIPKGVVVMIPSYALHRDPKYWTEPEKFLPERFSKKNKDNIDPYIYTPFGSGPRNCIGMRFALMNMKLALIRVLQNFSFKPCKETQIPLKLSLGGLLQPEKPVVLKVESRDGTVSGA
T4 sequence (P33261 whole entry): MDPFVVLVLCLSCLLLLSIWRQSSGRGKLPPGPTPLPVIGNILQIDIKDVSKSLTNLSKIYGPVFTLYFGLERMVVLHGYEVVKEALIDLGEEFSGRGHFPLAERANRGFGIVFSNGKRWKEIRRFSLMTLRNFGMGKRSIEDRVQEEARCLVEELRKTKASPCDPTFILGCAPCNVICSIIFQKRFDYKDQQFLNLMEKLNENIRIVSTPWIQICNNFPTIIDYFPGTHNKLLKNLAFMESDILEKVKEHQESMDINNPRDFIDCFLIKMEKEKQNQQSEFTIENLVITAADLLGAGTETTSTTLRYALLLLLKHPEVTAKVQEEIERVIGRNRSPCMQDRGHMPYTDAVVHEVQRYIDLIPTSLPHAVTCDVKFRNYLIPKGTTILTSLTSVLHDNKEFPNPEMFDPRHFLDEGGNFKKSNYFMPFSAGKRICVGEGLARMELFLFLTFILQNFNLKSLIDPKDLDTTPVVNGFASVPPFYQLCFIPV
T2 sequence (P10635 whole entry): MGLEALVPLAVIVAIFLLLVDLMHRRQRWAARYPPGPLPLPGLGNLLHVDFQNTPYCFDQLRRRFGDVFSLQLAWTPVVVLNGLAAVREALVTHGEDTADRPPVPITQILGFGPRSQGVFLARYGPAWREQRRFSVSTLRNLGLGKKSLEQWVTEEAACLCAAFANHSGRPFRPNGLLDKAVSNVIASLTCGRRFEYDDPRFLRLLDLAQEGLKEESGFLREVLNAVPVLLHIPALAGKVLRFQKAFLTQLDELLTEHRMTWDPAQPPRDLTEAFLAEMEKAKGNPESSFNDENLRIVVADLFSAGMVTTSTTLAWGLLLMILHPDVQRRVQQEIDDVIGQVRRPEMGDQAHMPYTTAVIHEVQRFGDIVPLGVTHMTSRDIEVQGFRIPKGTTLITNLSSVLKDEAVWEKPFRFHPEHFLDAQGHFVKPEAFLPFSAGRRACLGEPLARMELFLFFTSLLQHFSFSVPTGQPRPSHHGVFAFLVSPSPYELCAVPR

On to `COc1ccc2nc([S@@+]([O-])Cc3ncc(C)c(OC)c3C)[nH]c2c1` [esomeprazole], for which the inhibition at 15 min in the series with CYP2C19 is 37%.
Turning to `O=C(O)COc1ccc(C(=O)c2cccs2)c(Cl)c1Cl` [tienilic acid], the inhibition at 15 min on CYP2C9 [1] stood at 7%.
As for `CCC1NC(=O)C([C@H](O)[C@H](C)CCCCCCNC(C)=O)N(C)C(=O)C(C(C)C)N(C)C(=O)[C@H](CC(C)C)N(C)C(=O)[C@H](CC(C)C)N(C)C(=O)C(C)NC(=O)[C@H](C)NC(=O)C(CC(C)C)N(C)C(=O)[C@H](C(C)C)NC(=O)[C@H](CC(C)C)N(C)C(=O)C(C)N(C)C1=O` (stereo in doubt) [CRV431], the “% of Total Drug-Related Mass Versus Time (minutes) 0 min” value in series [2] (0 min, 1 ug/mL) turned out to be 96.4%; in series [7] (monkey, 0 min, 1 ug/mL, pH 7.4), 96.3%; in series [8] (0 min, 1 ug/mL) it was 96.2%. Also, the “% of Total Drug-Related Mass Versus Time (minutes) 10 min” value is given as 57.0% in series [2] (10 min, 1 ug/mL); 12.3% in series [7] (monkey, 10 min, 1 ug/mL, pH 7.4); 95.4% in series [8] (10 min, 1 ug/mL). Also, the “% of Total Drug-Related Mass Versus Time (minutes) 20 min” value in [2] (20 min, 1 ug/mL) is listed as 27.5%; in series [7] (monkey, 20 min, 1 ug/mL, pH 7.4), 4.3%; in series [8] (20 min, 1 ug/mL), 94.6%. Further, the “% of Total Drug-Related Mass Versus Time (minutes) 40 min” value came to 10.4% in series [2] (40 min, 1 ug/mL); 6.6% in series [7] (monkey, 40 min, 1 ug/mL, pH 7.4); 93.6% in [8] (40 min, 1 ug/mL). In addition, the “% of Total Drug-Related Mass Versus Time (minutes) 80 min” value in series [2] (80 min, 1 ug/mL) was found to be 4.0%; in series [7] (monkey, 80 min, 1 ug/mL, pH 7.4), 6.7%; in series [8] (80 min, 1 ug/mL), 92.3%. The “Amount of CRV431 remaining” value is 71.8% in series [2] (10 min); 5.3% in series [2] (80 min); 13.2% in [7] (monkey, microsomes, 10 min, 1 μg/mL, pH 7.4); 92.3% in series [8] (microsomes, 80 min, 1 μg/mL). For the same molecule, the “Disappearance of CRV431” value at recombinant human CYP2D6 is 32%; at recombinant human CYP1A2, 19%; in series [6], 17%; on recombinant human CYP3A4 (CRV431 1 μM), 64%; at CYP2C9 [9] (CRV431 1 μM), 27%. The “Loss of CRV431” value was found to be 24% in series [3], 41% at recombinant human CYP3A4 (CRV431 10 μM) and 27% at CYP2C9 [9] (CRV431 10 μM). Besides, the “Biotransformation of CRV431” value in [4] (1 and 10 μM, 1 mg protein/mL, after 60 min incubation, with NADPH-generating system) is “nearly complete”; in series [4] (absence of microsomal proteins and the NADPH-generating system, same time period) it was “no biotransformation”. For the same molecule, the Substrate loss result in series [5] is recorded as “less than 15%”. For the same molecule, the “Rate of CRV431 metabolism in monkey liver microsomes, greater than in human microsomes” value in series [7] (monkey relative to human liver microsomes) was “at least five-fold”. In addition, the “% of Total Drug-Related Mass Versus Time (minutes) 2.5 min” value in series [7] (monkey, 2.5 min, 1 ug/mL, pH 7.4) is recorded as 59.4%. Further, the “% of Total Drug-Related Mass Versus Time (minutes) 5 min” value in series [7] (monkey, 5 min, 1 ug/mL, pH 7.4) was found to be 21.5%.
